Test results: article PMC4750701, “Role of Mitochondrial RNA Polymerase in the Toxicity of Nucleotide Inhibitors of Hepatitis C Virus” (Antimicrobial Agents and Chemotherapy, 2016)
One block for each molecule: values may come before it.

Tests used:
RNA PolIII = biological target: T1, RNA PolIII (Homo sapiens, UniProt O14802+Q9NW08); test: RNA PolIII inhibition assay; assay type: biochemical; details: competing NTP 100 μM CTP and GTP, 500 μM ATP; read-out: Mean IC50 ± SD for RNA PolIII
T1 construct: complexes were isolated from rat NSN1 cells and HeLa cells, respectively; made in house; host or cells: HeLa cells expressing a FLAG-tagged Pol III subunit
Source text: (§1) Human DNA polymerase alpha, isolated from HeLa cell extracts, was from CHIMERx (Madison, WI). Recombinant human DNA polymerase beta, expressed in E. coli, was a gift from Zucai Suo at The Ohio State University. Recombinant human DNA polymerase gamma (including both the large subunit and the small subunit) was cloned, expressed, and purified from insect cells by Gilead Sciences (Foster City, CA) ([13]). RNA PolII was purchased as part of the HeLaScribe nuclear extract in vitro transcription system kit from Promega (Madison, WI). The recombinant human PolRMT and the transcription factors mitochondrial transcription factor A (mtTFA) and B2 (mtTFB2) were purchased from Enzymax (Lexington, KY). FLAG epitope-tagged RNA PolI and PolIII complexes were isolated from rat NSN1 cells and HeLa cells, respectively ([17], [18]). The inhibition of DNA polymerases alpha, beta, and gamma, PolRMT, and PolII and the rate of single-nucleotide incorporation by PolRMT have been described previously in detail ([12], [13], [19]). Inhibition of RNA PolI and PolIII was studied using published methods ([20], [21]). All concentrations were final unless noted otherwise. For the RNA PolI inhibition assay, a reaction mixture containing 50 mM HEPES (pH 7.9), 20% glycerol, 100 mM KCl, 1 mM dithiothreitol (DTT), 50 μg/ml calf thymus DNA, 4 mM MgCl2, 5 or 80 μM UTP (0.25 μl of [5,6-^3H]UTP, >25 Ci/mmol; PerkinElmer), 1 mM noncompeting NTP, competing NTP (5 μM for GTP, CTP, and UTP and 25 μM for ATP), and various concentrations (0 to 500 μM) of NTP analogs was preincubated at 30°C for 5 min. […] After incubation at 30°C for 20 min to 1 h, the reactions were terminated by pipetting the mixtures onto DEAE-cellulose discs (DE81; Whatman), and the products analyzed as described previously ([20], [21]).
The RNA PolIII inhibition assay was conducted in a similar manner, except that the concentrations of the competing NTP were modified to 100 μM for CTP and GTP and 500 μM for ATP to compensate for the low assay signal at lower NTP concentrations.

RNA PolI = biological target: T2, RNA PolI (Rattus norvegicus, UniProt O54889); test: RNA PolI inhibition assay; assay type: biochemical; details: NTP analogs 0 to 500 μM; read-out: Mean IC50 ± SD for RNA PolI
T2 construct: complexes were isolated from rat NSN1 cells and HeLa cells, respectively; made in house; host or cells: rat NSN1 cells expressing a FLAG-tagged Pol I subunit
Source text: as §1

[1] = system: RNA transcription products from PolI (preribosome), PolII (myc), and PolRMT (ATP6) in PC-3 cells; test: RNA transcripts in PC-3 cells by RT-PCR; assay type: cell-based, human; details: 100 μM, 1-day treatment
Protocol: CX-5461, a known specific RNA PolI inhibitor, was used as the positive control ([25]). The growth medium was aspirated and replaced with 200 μl of 100 μM BMS-986094, 5 μM CX-5461, or DMSO control prepared in growth medium. At selected time points (0.5, 1, 4, 8, and 24 h), duplicate wells of the compounds and DMSO control were aspirated, the cells were washed 1× with PBS (pH 7.4), and 100 μl of RNA lysis buffer was added (Promega, Sunnyvale, CA). RNA was purified using the Wizard SV 96 total RNA isolation kit (Promega) and eluted in 100 μl of nuclease-free water. The TaqMan RNA-to-Ct 1-step kit (ABI/Life Technologies) was used for reverse transcription-quantitative PCR (RT-qPCR) amplification and quantification, using the 7900HT Fast real-time PCR system (ABI) under the following conditions: 15 min at 48°C for reverse transcription and 10 min at 95°C for activation, followed by 40 cycles of 15 s at 95°C for denaturation and 1 min at 60°C for annealing and extension. […] Transcripts were quantified relative to the standard curves, and the results expressed as the percentages of the average value of DMSO control wells.

[2] = system: mitochondrial respiration in primary rat cardiomyocytes; test: Spare respiratory capacity in primary rat cardiomyocytes; details: primary rat cardiomyocytes, 3-day treatments
HCV replicon = system: HCV replicon; design: method as in PMID 21357300, PMID 21060109; details: cited from earlier work
Quiescent PBMCs = system: Quiescent PBMCs; design: method as in PMID 24419349; details: 5 days; read-out: Mean CC50 ± SD in PBMCs Quiescent; cited from earlier work
[3] = Chronic toxicology studies in dogs; assay type: in vivo; details: up to 39 weeks
Stimulated PBMCs = system: Stimulated PBMCs; design: method as in PMID 24419349; details: 5 days; read-out: Mean CC50 ± SD in PBMCs Stimulated; cited from earlier work
[4] = system: Primary human hepatocytes; design: method as in PMID 24419349; details: 5 days, read-out: Mean CC50 ± SD in Hepatic cells (primary); cited from earlier work
[5] = Chronic toxicology studies in rats; assay type: in vivo; details: up to 39 weeks

T2 sequence (O54889 whole entry): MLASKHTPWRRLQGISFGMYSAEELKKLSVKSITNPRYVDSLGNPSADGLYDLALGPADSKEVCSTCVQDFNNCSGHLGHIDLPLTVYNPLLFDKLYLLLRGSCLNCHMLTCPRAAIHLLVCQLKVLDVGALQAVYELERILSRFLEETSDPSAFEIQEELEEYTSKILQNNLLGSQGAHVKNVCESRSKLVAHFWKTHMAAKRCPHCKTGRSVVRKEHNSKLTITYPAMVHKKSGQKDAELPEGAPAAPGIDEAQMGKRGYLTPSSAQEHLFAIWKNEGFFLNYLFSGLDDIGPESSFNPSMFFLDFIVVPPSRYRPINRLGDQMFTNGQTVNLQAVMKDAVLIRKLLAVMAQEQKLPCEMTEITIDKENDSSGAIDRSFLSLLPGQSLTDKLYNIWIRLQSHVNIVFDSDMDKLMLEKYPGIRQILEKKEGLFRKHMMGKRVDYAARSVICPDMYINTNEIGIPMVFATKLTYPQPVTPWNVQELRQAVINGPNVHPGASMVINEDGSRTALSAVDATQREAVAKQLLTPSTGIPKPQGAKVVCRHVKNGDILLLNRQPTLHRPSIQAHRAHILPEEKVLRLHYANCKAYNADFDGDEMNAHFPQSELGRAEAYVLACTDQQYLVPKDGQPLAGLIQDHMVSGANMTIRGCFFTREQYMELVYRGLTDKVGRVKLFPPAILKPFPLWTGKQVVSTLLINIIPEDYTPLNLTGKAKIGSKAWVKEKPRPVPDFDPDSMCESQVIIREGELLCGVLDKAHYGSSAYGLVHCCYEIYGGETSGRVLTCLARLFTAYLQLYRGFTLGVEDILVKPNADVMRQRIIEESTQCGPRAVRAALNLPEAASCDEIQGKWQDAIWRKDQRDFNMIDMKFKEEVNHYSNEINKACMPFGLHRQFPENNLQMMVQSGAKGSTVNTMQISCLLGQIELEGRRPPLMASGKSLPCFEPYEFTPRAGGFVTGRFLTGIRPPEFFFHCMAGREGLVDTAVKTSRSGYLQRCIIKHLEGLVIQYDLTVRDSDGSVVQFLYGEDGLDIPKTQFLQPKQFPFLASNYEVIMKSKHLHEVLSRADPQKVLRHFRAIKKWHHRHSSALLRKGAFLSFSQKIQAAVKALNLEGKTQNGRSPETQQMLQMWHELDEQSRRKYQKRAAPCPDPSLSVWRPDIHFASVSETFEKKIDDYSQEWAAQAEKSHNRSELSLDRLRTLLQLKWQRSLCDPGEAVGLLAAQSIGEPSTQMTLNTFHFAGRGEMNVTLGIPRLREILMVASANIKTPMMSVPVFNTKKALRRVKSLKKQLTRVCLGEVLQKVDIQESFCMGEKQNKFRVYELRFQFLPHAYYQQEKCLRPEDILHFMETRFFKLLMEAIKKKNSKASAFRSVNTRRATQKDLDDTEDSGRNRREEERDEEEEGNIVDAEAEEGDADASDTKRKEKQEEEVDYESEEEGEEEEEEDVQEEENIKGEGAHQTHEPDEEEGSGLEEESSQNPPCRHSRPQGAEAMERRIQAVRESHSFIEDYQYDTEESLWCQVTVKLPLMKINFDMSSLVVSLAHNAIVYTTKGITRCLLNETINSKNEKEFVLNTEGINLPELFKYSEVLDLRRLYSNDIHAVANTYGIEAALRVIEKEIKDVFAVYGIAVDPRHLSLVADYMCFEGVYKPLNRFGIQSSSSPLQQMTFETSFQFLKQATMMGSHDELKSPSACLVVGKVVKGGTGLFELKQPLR

- IC50 (RNA PolIII): > 500 µM
- IC50 (RNA PolI): 300 ± 60 µM
Compound: C[C@@]1(O)[C@H](O)[C@@H](COP(=O)(O)OP(=O)(O)OP(=O)(O)O)O[C@H]1n1cnc2c(=O)[nH]c(N)nc21 [2′CMeGTP]

Compound: COc1nc(N)nc2c1ncn2[C@@H]1O[C@H](COP(=O)(N[C@@H](C)C(=O)OCC(C)(C)C)Oc2cccc3ccccc23)[C@@H](O)[C@@]1(C)O (stereo partly shown) [BMS-986094]
- relative levels of RNA transcripts (preribosomal, myc, mitochondrial ATP6, total RNA) [1]: decreased the relative levels of multiple RNA transcripts
- selectivity of effect on spare respiratory capacity versus DNA and ATP levels [2]: selective inhibition of mitochondrial respiration
- fold more potent than IDX184 against the HCV replicon (HCV replicon): 30- to 60 fold

Compound: CC(C)OC(=O)[C@H](C)N[P@](=O)(OC[C@H]1O[C@@](C#N)(c2ccc3c(N)ncnn23)[C@](C)(O)[C@@H]1OC(=O)C(C)C)Oc1ccccc1 [GS-6620]
- CC50 (Quiescent PBMCs): > 100 µM
- effects during chronic toxicology studies [3]: did not show
- CC50 (Stimulated PBMCs): > 100 µM
- CC50 [4]: > 100 µM
- effects during chronic toxicology studies [5]: did not show
